Data reported in the supplement of paper PMC11061612.

Experiments:
[1] = test system: CAL-29 (Bladder Carcinoma); test: Bliss excess, mean over the matrix (fraction); higher = more synergy
In short: (§1)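 After 24 hours at 37°C and 5% CO2 in 1536-well plates, cells in DMEM/F12 or RPMI plus 10% FBS received two-drug dose matrices for 72 hours. Viability came from CellTiter-Glo 2.0 luminescence and was scaled as inhibition, anchored at 0 by vehicle wells and at 1 by blank wells. Combination Emax is taken as the second-highest inhibition in the matrix, and Bliss excess as the observed combination effect less EA + EB − EA·EB, with EA and EB the single-agent effects.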

[2] = test system: NCI-H2066 (Squamous Cell Lung Carcinoma); test: as above
In short: as §1

[3] = test system: 8-MG-BA (Glioblastoma); test: as above
In short: as §1

[4] = test system: NCI-H2066 (Squamous Cell Lung Carcinoma); test: combination Emax (second highest fraction inhibited in the dose matrix, 72 h); higher = more inhibition; extreme values may be limits of the assay
In short: as §1

[5] = test system: CAS-1 (Glioblastoma); test: as above
In short: as §1

[6] = test system: 8-MG-BA (Glioblastoma); test: as above
In short: as §1

[7] = test system: COLO-824 (Breast Carcinoma); test: as above
In short: as §1

[8] = test system: NCI-H1581 (Non-Small Cell Lung Carcinoma); test: as above
In short: as §1

[9] = test system: JSC-1 (B-Cell Non-Hodgkin's Lymphoma); test: as above
In short: as §1

[10] = test system: CAPAN-2 (Pancreatic Carcinoma); test: as above
In short: as §1

[11] = test system: KARPAS-422 (B-Cell Non-Hodgkin's Lymphoma); test: as above
In short: as §1

[12] = test system: TT2609-C02 (Thyroid Gland Carcinoma); test: as above
In short: as §1

[13] = test system: NY (Osteosarcoma); test: as above
In short: as §1

[14] = test system: PA-1 (Ovarian Carcinoma); test: as above
In short: as §1

[15] = test system: BICR22 (Oral Cavity Carcinoma); test: as above
In short: as §1

[16] = test system: SISO (Cervical Carcinoma); test: as above
In short: as §1

[17] = test system: ARH-77 (Non-Cancerous); test: as above
In short: as §1

[18] = test system: GI-ME-N (Neuroblastoma); test: as above
In short: as §1

[19] = test system: NCI-H64 (Small Cell Lung Carcinoma); test: as above
In short: as §1

[20] = test system: NCI-H1650 (Lung Adenocarcinoma); test: as above
In short: as §1
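For Bliss excess, mean over the matrix in this document: after 72 h of two-drug dosing.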

Row | Structure (SMILES) | Bliss excess [1] | Bliss excess [2] | Bliss excess [3] | combination Emax [4] | combination Emax [5] | combination Emax [6] | combination Emax [7] | combination Emax [8] | combination Emax [9] | combination Emax [10] | combination Emax [11] | combination Emax [12] | combination Emax [13] | combination Emax [14] | combination Emax [15] | combination Emax [16] | combination Emax [17] | combination Emax [18] | combination Emax [19] | combination Emax [20]
1 | COc1cccc(OCCCN)c1-c1cc(Nc2cnc(C#N)cn2)n[nH]1 [Prexasertib] + O=C(c1cc(Cc2n[nH]c(=O)c3ccccc23)ccc1F)N1CCN(C(=O)C2CC2)CC1 [Olaparib] (first compound max 1 µM, 7x7, partner max 10 µM) | -0.185 | -0.0492 | 0.0262 | 0.316 | 0.588 | 0.969 | 0.77 | 0.563 | 0.996 | 0.337 | 0.92 | 0.329 | 0.652 | 0.706 | 0.78 | 0.803 | 0.969 | 0.452 | 0.835 | 0.494
2 | COc1nnc2ccc(N3CCC(c4ccc(OCCN5CCN(C)C(=O)[C@H]5C)cc4)CC3)nn12 [AZD5153] + C[C@@H]1COCCN1C2=NC(=NC(=C2)C3(CC3)[S@](=N)(=O)C)C4=C5C=CNC5=NC=C4 [AZD6738] (first compound max 1 µM, 7x7, partner max 10 µM) | 0.0219 | -0.0454 | -0.0849 | 0.41 | 0.712 | 0.837 | 0.869 | 0.714 | 0.901 | 0.379 | 0.887 | 0.521 | 0.627 | 0.973 | 0.709 | 0.757 | 0.991 | 0.464 | 0.927 | 0.509
3 | CC1(C)CCC(CN2CCN(c3ccc(C(=O)NS(=O)(=O)c4ccc(NCC5CCOCC5)c([N+](=O)[O-])c4)c(Oc4cnc5[nH]ccc5c4)c3)CC2)=C(c2ccc(Cl)cc2)C1 [Venetoclax] + C[C@@H](Nc1cc(F)cc(F)c1)c1cc(C(=O)N(C)C)cc2c(=O)cc(N3CCOCC3)oc12 [AZD8186] (first compound max 1 µM, 7x7, partner max 3 µM) | -0.0341 | -0.0182 | 0.0025 | 0.215 | 0.399 | 0.133 | 0.921 | 0.182 | 0.0196 | 0.194 | 0.98 | 0.162 | 0.616 | 0.682 | 0.15 | 0.11 | 0.724 | 0.165 | 0.335 | 0.255
4 | CN(CCO)CC[C@H](CSc1ccccc1)Nc1ccc(S(=O)(=O)NC(=O)c2ccc(N3CCC([C@@H](O)c4ccccc4-c4ccc(Cl)cc4)CC3)cc2)cc1S(=O)(=O)C(F)(F)F [AZD4320] + C[C@@H]1COCCN1C2=NC(=NC(=C2)C3(CC3)[S@](=N)(=O)C)C4=C5C=CNC5=NC=C4 [AZD6738] (first compound max 1 µM, 7x7, partner max 10 µM) | 0.0426 | -0.0437 | 0.0107 | 0.603 | 0.787 | 0.864 | 1 | 0.364 | 0.888 | 0.791 | 0.979 | 0.25 | 0.903 | 0.886 | 0.897 | 0.681 | 1 | 0.499 | 0.99 | 0.532
